Earlier results on 3 substances are cited in paper PMC3719006, “Safety, tolerability, pharmacokinetics, and pharmacodynamics of a long-acting release (LAR) formulation of pasireotide (SOM230) in patients with gastroenteropancreatic neuroendocrine tumors: results from a randomized, multicenter, open-label, phase I study” (Cancer Chemotherapy and Pharmacology, 2013).

One data set concerns sst2 receptor. From the text:
(§1) Somatostatin inhibits hormone release and cell growth through binding to specific, cell surface, G-protein–coupled receptors, of which five distinct subtypes (sst1–5) have been characterized. In pancreatic and gastrointestinal endocrine tumors, sst2 expression predominates, although multiple other subtypes have also been found. […] Development of the somatostatin an ...

The test system of another data set is sst5 receptor.
Excerpt: as §1

Data set [1] has as its system somatostatin receptor subtypes (sst1–3,5). Also noted: method as in PMID 17977644. To be noted: four of the five somatostatin receptor subtypes.
For data set [2] the following is noted: SC formulation.
The conditions of data set [3]: native somatostatin. As for the experimental part:
Somatostatin inhibits hormone release and cell growth through binding to specific, cell surface, G-protein–coupled receptors, of which five distinct subtypes (sst1–5) have been characterized. In pancreatic and gastrointestinal endocrine tumors, sst2 expression predominates, although multiple other subtypes have also been found. The limited clinical use of native somatostatin, because of its very short half-life (<3 min) and the impact of rebound hypersecretion, has necessitated the development of more clinically useful analogs. Development of the somatostatin an ...

Take octreotide: the binding affinity entry is on record as “binds with high affinity” with sst2 receptor and “lower binding affinity” in the data set with sst5 receptor. As for pasireotide, the binding affinity result in data set [1] is recorded as “binds with high affinity”. The “PK exposure difference between patients with GEP NET and healthy volunteers” value in data set [2] is given as “twofold”.

Broadly, the half-life is how long it takes for the measured level to halve. Consider “somatostatin: native hormone that inhibits hormone release and cell growth via sst1–5”, for which the half-life in data set [3] is listed as below 3 min.
